Assay results from US20100311581A1, “Azolylmethyloxiranes, use Thereof and Agents Containing the Same” (BASF SE, priority 2007, published 2010).
Like-named read-outs stand apart in the source and are kept apart here.

Legend:
Septoria tritici = experiment: Activity against Septoria leaf blotch Septoria tritici in the microtiter test (Septtr); format: cell-based
Leptosphaeria nodorum = experiment: Activity against glume blotch Leptosphaeria nodorum in the microtiter test (Leptno); format: cell-based
Pyriculana oryzae = format: cell-based
Phakopsora pachyrhizi = experiment: Curative activity against soya rust caused by Phakopsora pachyrhizi (Phakpa K1), greenhouse; format: in vivo; conditions: curative spray on soya seedlings, visual rating after 14 days in greenhouse, untreated 90% attack
[1] = Comparison tests, microtiter test
[2] = 31 ppm, microtiter plate, seventh day after inoculation, 405 nm, relative to active compound-free control (=100%)
[3] = Comparison tests, 31 ppm, microtiter test
[4] = microtiter plate, 7th day after inoculation, 405 nm, relative to active compound-free control (100%)

Structure (SMILES): COC(=O)Sc1ncnn1CC1(c2ccc(F)cc2)OC1c1ccccc1Cl (stereo not shown) [WO9742178, p. 55 (4th compound)]
- Growth in % at 31 ppm with Septtr (Septoria tritici; [1]): 100%
- Growth in % at 31 ppm with Leptno (Leptosphaeria nodorum; [1]): 100%

Structure (SMILES): CSc1ncnn1C[C@]1(c2cccc(F)c2)O[C@@H]1c1ccccc1C (relative stereo) [Example 5, 1-rel-[(2S,3R)-2-(3-fluorophenyl)-3-o-tolyloxiran-2-ylmethyl]-5-(methylthio)-1H-1,2,4-triazole]
- Growth in % at 31 ppm with Pyrior (Pyriculana oryzae; [2]): 0%

Structure (SMILES): COC(=O)Sc1ncnn1C[C@]1(c2cccc(F)c2)O[C@@H]1c1ccccc1Cl (relative stereo) [Example 12, methyl {2-[rel-(2S,3R)-3-(2-chlorophenyl)-2-(3-fluorophenyl)-oxiranylmethyl]-2H-[1,2,4]triazole-3-yl}thiocarbonate]
- Growth in % at 31 ppm with Septtr (Septoria tritici; [1]): 25%
- Growth in % at 31 ppm with Leptno (Leptosphaeria nodorum; [1]): 0%
- Growth in % at 31 ppm with Leptno (Leptosphaeria nodorum; microtiter plate, 7th day after inoculation, 405 nm, relative to active compound-free control): 0%

Structure (SMILES): CSc1ncnn1C[C@]1(c2cccc(F)c2)O[C@@H]1c1ccccc1Cl (relative stereo) [Example 6, 1-[rel-(2S,3R)-3-(2-chlorophenyl)-2-(3-fluorophenyl)oxiran-2-ylmethyl]-5-(methylthio)-1H-1,2,4-triazole]
- Attack in % at 600 ppm with Phakpa K1 (Phakopsora pachyrhizi): 0%

Structure (SMILES): CSc1ncnn1C[C@]1(c2cccc(F)c2)O[C@@H]1c1ccccc1F (relative stereo) [Example 4, 1-[rel-(2S,3R)-3-(2-fluorophenyl)-2-(3-fluorophenyl)oxiran-2-ylmethyl]-5-(methylthio)-1H-1,2,4-triazole]
- Growth in % at 31 ppm with Pyrior (Pyriculana oryzae; [2]): 0%
- Growth in % at 31 ppm with Pyrior (Pyriculana oryzae; [3]): 0%

Structure (SMILES): Fc1ccccc1[C@@]1(Cn2nc[nH]c2=S)O[C@@H]1c1ccccc1Cl
- Growth in % at 31 ppm with Septtr (Septoria tritici; [1]): 58%

Structure (SMILES): CCOP(=S)(OCC)Sc1ncnn1C[C@]1(c2cccc(F)c2)O[C@@H]1c1ccccc1Cl (relative stereo) [Example 10, S-1-[rel-(2S,3R)-3-(2-chlorophenyl)-2-(3-fluorophenyl)oxiran-2-ylmethyl]-1H-1,2,4-triazole-5-yl O,O-diethyl phosphorodithioate]
- Growth in % at 31 ppm with Pyrior (Pyriculana oryzae): 0%

Structure (SMILES): Cc1ccccc1[C@H]1O[C@]1(Cn1nc[nH]c1=S)c1cccc(F)c1 (relative stereo) [Example 3, 1-[rel-(2S,3R)-2-(3-fluorophenyl)-3-o-tolyloxiran-2-ylmethyl]-1H-1,2,4-triazole-5(4H)-thione]
- Growth in % at 31 ppm with Septtr (Septoria tritici; [4]): 11%

Structure (SMILES): Fc1cccc([C@@]2(Cn3nc[nH]c3=S)O[C@@H]2c2ccccc2Cl)c1 (relative stereo) [Example 1, 1-[rel-(2S,3R)-3-(2-chlorophenyl)-2-(3-fluorophenyl)oxiran-2-ylmethyl]-1H-1,2,4-triazole-5(4H)-thione]
- Growth in % at 31 ppm with Septtr (Septoria tritici; [1]): 21%
- Growth in % at 31 ppm with Septtr (Septoria tritici; [4]): 21%

Structure (SMILES): CSc1ncnn1C[C@]1(c2ccc(F)cc2)O[C@@H]1c1ccccc1F [WO9638440, p. 17 (4th compound),]
- Growth in % at 31 ppm with Pyrior (Pyriculana oryzae; [3]): 100%

Structure (SMILES): N#CSc1ncnn1C[C@]1(c2cccc(F)c2)O[C@@H]1c1ccccc1Cl (relative stereo) [Example 9, 1-[rel-(2S,3R)-3-(2-chlorophenyl)-2-(3-fluorophenyl)oxiran-2-ylmethyl]-5-thiocyanato-1H-1,2,4-triazole]
- Growth in % at 31 ppm with Septtr (Septoria tritici; [4]): 49%
